{
  "source": "paper PMC6433934",
  "about": "“Preclinical Evaluation of Bispecific Adaptor Molecule Controlled Folate Receptor CAR-T Cell Therapy With Special Focus on Pediatric Malignancies” (Frontiers in Oncology, 2019)",
  "key": {"FRβ": {"biological_target": "T1, FRβ (Homo sapiens, UniProt P14207)", "T1 construct": "expressed in transfected cells; host or cells: Chinese hamster ovary cells (CHO-β)", "T1 sequence (P14207 17-255)": "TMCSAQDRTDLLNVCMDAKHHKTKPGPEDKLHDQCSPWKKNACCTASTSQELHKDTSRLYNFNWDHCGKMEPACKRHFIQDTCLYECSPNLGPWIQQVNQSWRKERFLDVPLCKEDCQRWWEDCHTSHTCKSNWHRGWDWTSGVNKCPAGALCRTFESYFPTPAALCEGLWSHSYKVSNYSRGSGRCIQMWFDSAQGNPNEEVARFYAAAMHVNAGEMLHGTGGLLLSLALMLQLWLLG", "experiment": "3H-EC17 cell-based radioligand binding, CHO-β cells", "details": "^3H-EC17, CHO-β cells, 2 h at 37°C, from molecules bound per cell", "experimental": "(§1) Unless otherwise noted, all FR+ and FR-negative cancer cell lines were, respectively, maintained in RPMI-1640 medium (Gibco BRL) supplemented with 10% heat-inactivated fetal calf serum without (FFRPMI) or with (RPMI) 2.4 μM folic acid (FA). KB (FRα-expressing human cervical carcinoma with HeLa markers) and CHO-β (Chinese hamster ovary cells transfected with human FRβ) were used as the sources of FRα and FRβ for radioligand binding assays, respectively ([18]). MDA-MB-231 represents a FRα+ subclone of human TNBC cell line. For AML studies, the green fluorescent protein (GFP)-expressing isogenic pairs of FRβ-positive (THP1-FRβ) and FR-negative (THP1-FG12) cell lines were kindly provided by Dr. Manohar Ratnam (The University of Toledo, Toledo, OH). […]\n(§2) The bispecific affinities of EC17 CAM were assessed using ^3H-EC17 in cell-based radioligand binding assays. […] The whole cell lysates were quantitated for the level of radioactivity and cellular protein content by standard Pierce BCA protein assay. The number of ^3H-EC17 molecules bound per cell was calculated to determine the dissociation constants (Kd) for FRα (KB) and FRβ (CHO-β), respectively. […] Afterwards, the cells were washed 4x with PBS, lysed with 0.1% Triton X-100 plus 0.1 N NaOH and counted in a scintillation counter. […]"}, "FRα": {"biological_target": "T2, FRα (Homo sapiens, UniProt P15328)", "T2 construct": "KB (FRα-expressing human cervical carcinoma with HeLa markers); endogenous in cells; host or cells: KB cells (human cervical carcinoma with HeLa markers)", "T2 sequence (P15328 25-257)": "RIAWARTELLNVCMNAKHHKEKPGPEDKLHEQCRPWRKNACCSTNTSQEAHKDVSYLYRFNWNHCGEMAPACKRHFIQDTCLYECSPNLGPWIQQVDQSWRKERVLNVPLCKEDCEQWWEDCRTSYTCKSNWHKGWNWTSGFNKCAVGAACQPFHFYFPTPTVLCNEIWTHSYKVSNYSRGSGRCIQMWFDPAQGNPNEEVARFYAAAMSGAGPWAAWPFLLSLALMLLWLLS", "experiment": "3H-EC17 cell-based radioligand binding, KB cells", "details": "^3H-EC17, KB cells, 2 h at 37°C, from molecules bound per cell", "experimental": "as §1, §2"}, "HOS-143b": {"tested_on": "HOS-143b", "experiment": "Kinetics of specific lysis at varying E/T ratios, 10 nM EC17", "assay_type": "cell-based, human", "details": "10 nM EC17, E2-CAR-T cells, E/T 1:27 to 3:1, 16 and 48 h", "experimental": "For an EC17 dose response study, FR+ cancer cell lines (KB, MDA-MB-231, HOS-FRα, THP1-FRβ, OV90) were co-cultured with EGFRt-sorted E2-CAR-T cells at an effector-to-target (E/T) ratio of 1:1 in the presence of EC17 ranging from 0.1 pM to 100 μM in 10-fold increments. After 24 h of co-culture, supernatants were harvested to determine target cell killing by Promega's CytoTox 96® LDH assay kit and expressed as specific lysis (%) normalized to basal levels in the absence of EC17. To study the kinetics of T cell activation and FR correlation in vitro, co-cultures were carried out in FR+/- cell lines at varying E/T ratios (1:27, 1:9, 1:3, 1:1, 3:1) in the continuous presence of 10 nM EC17. The kinetics of target cell killing (i.e., % specific lysis) were quantified after 16 and 48 h of co-culture and normalized to basal levels in the absence of EC17 at defined E/T ratios. Meanwhile, a portion of the supernatants was taken after 44 h of co-culture for measurement of IFNγ, IL-2, and TNFα. The LEGENDplex™ human Th1 cytokine panel (BioLegend, San Diego, CA) was used to determine CAR-T cell derived cytokines."}, "[1]": {"tested_on": "HOS-FRα tumor-bearing mice", "experiment": "Toxicity and CRS rescue with sodium fluorescein", "assay_type": "in vivo", "details": "~2.5 million CD8 and ~33 million CD4 E2-CAR-T cells", "experimental": "Depending on the CAR-T cell dose and how EC17 is administered, tumor-bearing mice receiving FITC-specific CAR-T cells can experience severe CRS and varying degrees of body weight loss ([27], [33], [34]). Therefore, we developed a CRS grading system (0–5 scale) to empirically assess CRS toxicity from animals' gross morphology and social behavior to allow for better timing of CRS rescue. While grades 0 and 5 indicated normal (no CRS) or death (due to severe CRS), respectively, grades 1, 2, and 3–4 were considered mild, light-to-moderate, and severe CRS. In addition, all EC17 doses were intentionally given toward the end of any given day to allow potential CRS symptoms to develop overnight. On the days immediately following each EC17 dose, animals were scored and rescue agents such as sodium fluorescein, folic acid and leucovorin were used to mitigate CRS toxicity ([33]). In this particular instance, a batch of E2-CAR-T cells with a high EGFRt+ CD4/CD8 ratio (~93:7) was given to HOS-FRα tumor-bearing mice at a mixture of ~2.5 million CD8 and ~33 million CD4 on day 0. When EC17 was dosed, respectively, at 500, 100, and 500 nmol/kg on days 3, 10, and 12, low CRS (grades 1–2) was noted on days 4 and 11 but high CRS (grade 3) was noted on day 13. To mitigate the severe CRS toxicity, sodium fluorescein was intravenously administrated at ~96 mg/kg in the morning of day 13 and mouse plasma samples were collected 6 h later for analysis of CRS-associated cytokines."}},
  "note": "pKd: −log10 of the molar value.",
  "data": [
    {"smiles": "Nc1nc2ncc(CNc3ccc(C(=O)NC(CCC(=O)NCCNC(=S)Nc4ccc(-c5c6ccc(=O)cc-6oc6cc(O)ccc56)c(C(=O)O)c4)C(=O)O)cc3)nc2c(=O)[nH]1", "note": "(centres unmarked) [EC17, FA-(γ)-ethylenediamine-FITC]", "values": [
      {"measurement": "pKd", "setting": "FRβ", "result": 9.10},
      {"measurement": "pKd", "setting": "FRα", "result": 8.77},
      {"measurement": "specific lysis of FR-negative cells", "setting": "HOS-143b", "result": "essentially unharmed"},
      {"measurement": "CRS grade", "setting": "[1]; day 13, after EC17 500 nmol/kg on day 12", "result": 3},
      {"measurement": "CRS grade", "setting": "[1]; days 4 and 11, after EC17 500 and 100 nmol/kg on days 3 and 10", "result": "1–2"}
    ]}
  ]
}
